From publication PMC4122973 (Bioscience Reports, 2014)
“Also recorded” adds a separate entry of the source.

Assays:
TRPA1 804N = target: T1, TRPA1 804N (Homo sapiens, UniProt O75762, S804N); experiment: Fluo-3 intracellular Ca2+ assay, HEK-293 cells expressing TRPA1 804N SNP variant; type: cell-based; conditions: HEK-293 TRPA1 804N; mean ±standard deviation, n=4; read-out: EC50 cinnamaldehyde
T1 construct: expressed in transfected cells
Source text: (§1) Human TRPA1 cDNA in pcDNA3.1neo [41] was mutated to create SNP variants using quick change PCR with appropriate primer pairs: R797T forward 5′ […] TT and reverse 5′ […], S804N forward 5′ […] ATGTTC and reverse 5′ […]. Likewise, the experimental mutant S873E, in ICL-2 (intracellular loop-2), was created using PCR primers: forward 5′ […] […] and reverse 5′ […]. For C-terminal extension, TRPA1cDNA was modified by excision of the 3′ section of the coding region (BamHI–XbaI digestion) and replacement with a BamHI–XbaI digested PCR amplified section containing codons for ten histidine residues (His)10 prior to the translation stop codon using T4 DNA ligase (Promega). PCR primers were: sense 5′ TTTAC […] CATT 3′ and antisense 5′ […] […] TGCCTT 3′. […]
(§2) Aliquots of cell suspension (usually 100 μl) were used for measurement of intracellular Ca^2+ transients using a PTI (Photon Technology International) 814 photomultiplier detection system interfaced with a desktop computer (PTI Inc.). […] The cuvette was illuminated using light at a wavelength of 506 nm (slit width 8 nm) and monitored using fluorescence detection at 526 nm (slit width 8 nm) coupled to FeliX GX software (PTI Inc). […] Real-time fluorescence intensity measurements were collected and data were exported to Microsoft Excel for analysis. […]

TRPA1-(His)10 = target: T2, TRPA1-(His)10 (Homo sapiens, UniProt O75762); experiment: Fluo-3 intracellular Ca2+ assay, HEK-293 cells expressing TRPA1-(His)10; type: cell-based; conditions: HEK-293 TRPA1-(His)10; mean ±standard deviation, n=4; read-out: EC50 cinnamaldehyde
T2 construct: expressed in transfected cells
Source text: as §1, §2

TRPA1 797T = target: T3, TRPA1 797T (Homo sapiens, UniProt O75762, R797T); experiment: Fluo-3 intracellular Ca2+ assay, HEK-293 cells expressing TRPA1 797T SNP variant; type: cell-based; conditions: HEK-293 TRPA1 797T; mean ±standard deviation, n=4; read-out: EC50 cinnamaldehyde
T3 construct: expressed in transfected cells
Source text: as §1, §2

TRPA1 797R = target: T4, TRPA1 797R (Homo sapiens, UniProt O75762); experiment: Fluo-3 intracellular Ca2+ assay, HEK-293 cells expressing TRPA1 797R (reference sequence); type: cell-based
T4 construct: expressed in transfected cells
Method: When cells reached approximately 80% confluence they were harvested for assays measuring Ca^2+ transients in response to TRP channel activation. Following a brief wash with PBS, cells were detached from each T75 flask by soaking with 2 ml Hepes-buffered saline EDTA (10 mM Hepes pH7.4, 155 mM NaCl, 1.7 mM EDTA) for several minutes and were harvested by addition of 10 ml PBS with gentle agitation and transfer to a 25 ml universal. A sample was taken to calculate cell yield using a hemocytometer and the cells were pelleted by centrifugation at 1500 rpm for 4 min. […]

TRPM8 FK 1045,1046 AG [1] = target: T5, TRPM8 FK 1045,1046 AG (Homo sapiens, UniProt Q7Z2W7, F1045A/K1046G); experiment: Fluo-3 intracellular Ca2+ assay, SH-SY5Y cells expressing TRPM8 FK 1045,1046 AG mutant; type: cell-based
T5 construct: expressed in transfected cells
Source text: (§3) Human TRPM8 cDNA was cloned by RT–PCR from human prostate cancer cell line LNCaP (from the American Type Culture Collection) by ligation into pcDNA3.1neo and its DNA sequence validated (L.R. Sadofsky, unpublished work). Normal TRPM8 cDNA was mutated using synthetic oligonucleotides (from Eurofins, MWG, Operon) to amplify full-length plasmid DNA with Pfu DNA polymerase (Thermo Scientific). Amplified DNA was used to transform competent Esherichia coli (Agilent) and individual plasmid clones were screened by diagnostic restriction enzyme digestion-agarose gel electrophoresis. […]
(§4) Cell suspension for assay was added to 1.9 ml isotonic assay buffer (no BSA) in a 10×10×45 mm polystyrene cuvette (Sarstedt Ltd) containing a small magnetic flea for continuous stirring (~50 rpm), to bring the final volume to 2 ml, and placed within the photomultipler light box. […] Real-time fluorescence intensity measurements were collected and data were exported to Microsoft Excel for analysis. […]
(§5) Data from the measurement of Ca^2+ transients (each treatment including a 2 μM A23187 Ca^2+ ionophore control) were used to generate fluorescence intensity traces in Microsoft Excel. RFU (relative fluorescence unit) values for baseline and agonist-induced peak Ca^2+ fluo-3-fluorescence were determined by the manual analysis of graphs. […]

SH-SY5Y TRPA1 R797T = target: T6, SH-SY5Y TRPA1 R797T (Homo sapiens, UniProt O75762, R797T); experiment: Fluo-3 intracellular Ca2+ assay, TRPA1-transfected SH-SY5Y cells that lost response to agonist; type: cell-based; conditions: pre-treatment followed by AITC
T6 construct: expressed in transfected cells
Method: (§6) When cells reached approximately 80% confluence they were harvested for assays measuring Ca^2+ transients in response to TRP channel activation. […] A sample was taken to calculate cell yield using a hemocytometer and the cells were pelleted by centrifugation at 1500 rpm for 4 min.
Cell suspension for assay was added to 1.9 ml isotonic assay buffer (no BSA) in a 10×10×45 mm polystyrene cuvette (Sarstedt Ltd) containing a small magnetic flea for continuous stirring (~50 rpm), to bring the final volume to 2 ml, and placed within the photomultipler light box. […] Slit apertures were adjusted to enable maximum sensitivity while maintaining low noise. TRP channel agonist was administered by injection into the cuvette using a 1–20 μl pipette fitted with a narrow, extended-reach disposable tip. […] Real-time fluorescence intensity measurements were collected and data were exported to Microsoft Excel for analysis. […]
as §5, with “graphs. Agonist dose-dependent changes in peak RFU were expressed as ΔRFU relative to baseline and relative to maximum RFU elicited by A23187.” for “graphs.”

human TRPM8 = target: T7, human TRPM8 (Homo sapiens, UniProt Q7Z2W7); experiment: Fluo-3 intracellular Ca2+ assay, HEK-293 cells expressing normal human TRPM8; type: cell-based
T7 construct: expressed in transfected cells
Method: as §6
Cell suspension for assay was added to 1.9 ml isotonic assay buffer (no BSA) in a 10×10×45 mm polystyrene cuvette (Sarstedt Ltd) containing a small magnetic flea for continuous stirring (~50 rpm), to bring the final volume to 2 ml, and placed within the photomultipler light box. […] Slit apertures were adjusted to enable maximum sensitivity while maintaining low noise. TRP channel agonist was administered by injection into the cuvette using a 1–20 μl pipette fitted with a narrow, extended-reach disposable tip. Antagonists were pre-added to cuvettes where appropriate. Real-time fluorescence intensity measurements were collected and data were exported to Microsoft Excel for analysis. Experimental treatments were performed in triplicate on three separate occasions to facilitate statistical analyses of reproducibility.
Data from the measurement of Ca^2+ transients (each treatment including a 2 μM A23187 Ca^2+ ionophore control) were used to generate fluorescence intensity traces in Microsoft Excel. RFU (relative fluorescence unit) values for baseline and agonist-induced peak Ca^2+ fluo-3-fluorescence were determined by the manual analysis of graphs. Agonist dose-dependent changes in peak RFU were expressed as ΔRFU relative to baseline and relative to maximum RFU elicited by A23187. […] This enabled estimation of excitatory concentration EC50 for agonists and inhibitory concentration IC50 values where pre-incubation with antagonist was employed. Comparisons between data generated in triplicate within individual experiments and between experiments performed on […] were analysed using Student's t test and one-way ANOVA with post-hoc analysis of group means using Tukey's multiple comparison test.

TRPM8 SV 762,763 EL = target: T8, TRPM8 SV 762,763 EL (Homo sapiens, UniProt Q7Z2W7, S762E/V763L); experiment: Fluo-3 intracellular Ca2+ assay, HEK-293 cells expressing TRPM8 SV 762,763 EL mutant; type: cell-based; conditions: HEK293 TRPM8 SV / EL; mean±S.E.M., n=3; read-out: EC50 for WS 12 (peak intracellular Ca2+ fluorescence)
T8 construct: expressed in transfected cells
Source text: as §3, §4, §5

[2] = test system: HEK-293 cells transfected with empty pcDNA3.1neo vector; experiment: Fluo-3 intracellular Ca2+ assay, control HEK-293 cells with empty pcDNA3.1neo vector; type: cell-based, human; conditions: HEK-293 empty pcDNA3.1neo vector; 40 nM WS 12 (Figure S1a)
Method: Following a brief wash with PBS, cells were detached from each T75 flask by soaking with 2 ml Hepes-buffered saline EDTA (10 mM Hepes pH7.4, 155 mM NaCl, 1.7 mM EDTA) for several minutes and were harvested by addition of 10 ml PBS with gentle agitation and transfer to a 25 ml universal. A sample was taken to calculate cell yield using a hemocytometer and the cells were pelleted by centrifugation at 1500 rpm for 4 min. The pellet was resuspended in isotonic buffer (145 mM NaCl, 5 mM KCl, 1 mM MgCl2, 1 mM CaCl2, 10 mM Hepes pH7.4, 10 mM glucose, a variable content of probenecid (0, 0.13, 0.26, 0.52, 1.0, 2.0 or 2.5 mM) or 0.18 mM sulfinpyrazone, with optional 10 mg/ml BSA (all from Sigma-Aldrich) at a density of 5×10^6/ml and mixed with 2.5 or 5.0 μl Fluo-3AM (Invitrogen) from a 2.5 μg/μl stock solution prepared in (DMSO, Sigma-Aldrich). Cells were incubated in a 25 ml universal in the dark at room temperature with gentle rotary mixing (50 rpm) for 30–45 min and then washed by addition of 18 ml PBS followed by centrifugation and resuspension in isotonic buffer without BSA at 5×10^6 cells/ml. […] Real-time fluorescence intensity measurements were collected and data were exported to Microsoft Excel for analysis. […]

TRPM8 FK 1045,1046 AG [3] = target: T5, TRPM8 FK 1045,1046 AG; experiment: Fluo-3 intracellular Ca2+ assay, HEK-293 cells expressing TRPM8 FK 1045,1046 AG mutant; type: cell-based; conditions: HEK293 TRPM8 FK / AG; mean±S.E.M., n=3; read-out: EC50 for WS 12 (peak intracellular Ca2+ fluorescence)
Source text: as §3, §4, §5

T5 sequence (Q7Z2W7 whole entry F1045A/K1046G): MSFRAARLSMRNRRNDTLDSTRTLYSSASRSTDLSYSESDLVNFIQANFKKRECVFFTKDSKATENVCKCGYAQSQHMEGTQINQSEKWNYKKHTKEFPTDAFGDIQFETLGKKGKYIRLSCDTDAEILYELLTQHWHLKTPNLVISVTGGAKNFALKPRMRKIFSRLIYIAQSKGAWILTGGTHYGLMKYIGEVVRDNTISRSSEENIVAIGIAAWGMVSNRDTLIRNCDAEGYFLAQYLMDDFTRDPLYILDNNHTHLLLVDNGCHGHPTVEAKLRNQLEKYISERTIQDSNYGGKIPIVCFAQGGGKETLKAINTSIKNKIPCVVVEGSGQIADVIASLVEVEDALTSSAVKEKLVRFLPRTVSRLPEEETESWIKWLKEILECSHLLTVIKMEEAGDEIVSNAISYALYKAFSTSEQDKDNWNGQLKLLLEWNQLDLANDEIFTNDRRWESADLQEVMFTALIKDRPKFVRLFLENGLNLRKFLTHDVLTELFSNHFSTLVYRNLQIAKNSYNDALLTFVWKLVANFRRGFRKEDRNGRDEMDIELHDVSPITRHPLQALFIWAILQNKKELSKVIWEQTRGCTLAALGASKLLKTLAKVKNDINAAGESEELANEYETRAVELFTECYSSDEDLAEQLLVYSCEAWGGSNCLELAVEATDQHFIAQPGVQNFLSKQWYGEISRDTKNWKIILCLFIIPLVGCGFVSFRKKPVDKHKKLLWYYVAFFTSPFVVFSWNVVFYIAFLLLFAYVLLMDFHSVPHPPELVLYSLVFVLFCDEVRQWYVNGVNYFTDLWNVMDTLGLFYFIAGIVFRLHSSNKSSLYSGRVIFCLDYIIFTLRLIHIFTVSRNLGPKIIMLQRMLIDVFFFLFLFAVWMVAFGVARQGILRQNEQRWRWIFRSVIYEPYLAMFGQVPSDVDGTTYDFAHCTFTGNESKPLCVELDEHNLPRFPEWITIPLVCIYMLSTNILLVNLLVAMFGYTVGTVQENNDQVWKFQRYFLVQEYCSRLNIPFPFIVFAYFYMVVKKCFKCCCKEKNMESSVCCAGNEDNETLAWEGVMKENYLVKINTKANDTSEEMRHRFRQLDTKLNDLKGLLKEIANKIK
T4 sequence (O75762 whole entry): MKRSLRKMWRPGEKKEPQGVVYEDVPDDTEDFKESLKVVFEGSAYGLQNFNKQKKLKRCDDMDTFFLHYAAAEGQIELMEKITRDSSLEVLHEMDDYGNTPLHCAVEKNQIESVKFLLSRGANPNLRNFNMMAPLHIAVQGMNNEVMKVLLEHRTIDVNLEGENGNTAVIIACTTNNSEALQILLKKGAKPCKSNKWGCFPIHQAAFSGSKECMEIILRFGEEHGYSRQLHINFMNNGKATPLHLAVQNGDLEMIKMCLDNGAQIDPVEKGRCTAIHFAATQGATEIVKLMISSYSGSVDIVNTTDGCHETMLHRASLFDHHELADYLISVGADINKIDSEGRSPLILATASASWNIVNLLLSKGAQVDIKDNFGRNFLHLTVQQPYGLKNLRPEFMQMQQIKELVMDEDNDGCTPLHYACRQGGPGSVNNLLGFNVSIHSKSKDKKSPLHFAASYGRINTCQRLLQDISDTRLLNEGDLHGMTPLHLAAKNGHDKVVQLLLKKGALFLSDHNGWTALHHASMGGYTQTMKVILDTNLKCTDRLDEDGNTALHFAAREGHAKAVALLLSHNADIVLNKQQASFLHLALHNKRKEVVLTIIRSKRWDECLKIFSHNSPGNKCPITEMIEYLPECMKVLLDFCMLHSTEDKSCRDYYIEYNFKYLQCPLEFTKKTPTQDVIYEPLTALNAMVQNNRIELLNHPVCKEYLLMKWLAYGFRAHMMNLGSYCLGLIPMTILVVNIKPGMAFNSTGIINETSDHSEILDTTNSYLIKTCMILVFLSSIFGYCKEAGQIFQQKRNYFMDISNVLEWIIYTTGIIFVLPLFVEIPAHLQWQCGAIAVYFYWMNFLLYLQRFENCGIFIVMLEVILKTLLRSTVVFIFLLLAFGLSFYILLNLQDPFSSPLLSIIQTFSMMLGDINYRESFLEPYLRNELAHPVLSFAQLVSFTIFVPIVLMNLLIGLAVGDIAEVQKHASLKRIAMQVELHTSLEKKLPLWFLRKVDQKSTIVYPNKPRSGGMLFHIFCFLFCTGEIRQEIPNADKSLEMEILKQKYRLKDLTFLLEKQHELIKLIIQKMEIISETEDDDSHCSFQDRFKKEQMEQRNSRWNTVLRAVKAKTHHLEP
T7 sequence (Q7Z2W7 whole entry): as the sequence (Q7Z2W7 whole entry F1045A/K1046G) above, with A1045F, G1046K counted along it
T8 sequence (Q7Z2W7 whole entry S762E/V763L): as the sequence (Q7Z2W7 whole entry F1045A/K1046G) above, with S762E, V763L, A1045F, G1046K counted along it
T1 sequence (O75762 whole entry S804N): as the sequence (O75762 whole entry) above, with S804N counted along it
T6 sequence (O75762 whole entry R797T): as the sequence (O75762 whole entry) above, with R797T counted along it
T3 sequence (O75762 whole entry R797T): as the sequence (O75762 whole entry) above, with R797T counted along it
T2 sequence (O75762 with tags, fused parts or gaps limits assumed): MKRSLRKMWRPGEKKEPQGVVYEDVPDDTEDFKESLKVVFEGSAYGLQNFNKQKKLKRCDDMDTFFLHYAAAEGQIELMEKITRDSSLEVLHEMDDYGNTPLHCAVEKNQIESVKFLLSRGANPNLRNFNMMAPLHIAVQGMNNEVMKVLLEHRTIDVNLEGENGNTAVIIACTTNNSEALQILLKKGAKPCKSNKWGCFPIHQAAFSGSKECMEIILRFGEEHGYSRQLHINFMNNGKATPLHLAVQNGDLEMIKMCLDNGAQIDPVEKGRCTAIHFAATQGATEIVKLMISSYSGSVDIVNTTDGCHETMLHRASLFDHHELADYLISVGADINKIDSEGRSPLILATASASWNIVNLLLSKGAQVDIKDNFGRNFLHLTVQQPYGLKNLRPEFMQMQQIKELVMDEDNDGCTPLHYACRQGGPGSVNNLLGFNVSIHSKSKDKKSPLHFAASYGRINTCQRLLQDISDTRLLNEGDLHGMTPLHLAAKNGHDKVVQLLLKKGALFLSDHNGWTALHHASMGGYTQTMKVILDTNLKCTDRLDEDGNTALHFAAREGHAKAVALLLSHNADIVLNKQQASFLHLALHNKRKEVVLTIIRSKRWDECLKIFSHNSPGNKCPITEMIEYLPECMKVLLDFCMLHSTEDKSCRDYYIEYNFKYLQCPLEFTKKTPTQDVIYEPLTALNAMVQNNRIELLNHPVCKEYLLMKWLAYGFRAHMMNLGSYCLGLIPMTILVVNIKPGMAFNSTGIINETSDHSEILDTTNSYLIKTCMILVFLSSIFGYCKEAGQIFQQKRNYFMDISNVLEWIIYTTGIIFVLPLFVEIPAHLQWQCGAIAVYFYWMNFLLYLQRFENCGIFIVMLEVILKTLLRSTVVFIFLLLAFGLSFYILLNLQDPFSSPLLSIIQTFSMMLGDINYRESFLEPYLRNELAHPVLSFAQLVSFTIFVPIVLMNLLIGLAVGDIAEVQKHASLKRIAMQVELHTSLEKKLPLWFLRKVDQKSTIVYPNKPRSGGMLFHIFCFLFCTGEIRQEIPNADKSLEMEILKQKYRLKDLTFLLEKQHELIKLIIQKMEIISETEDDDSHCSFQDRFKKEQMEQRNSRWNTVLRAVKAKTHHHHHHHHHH

O=C/C=C/c1ccccc1 [cinnamaldehyde]
EC50 (TRPA1 804N): 11000 ± 3000 nM | EC50 (TRPA1-(His)10): 8000 ± 2000 nM | EC50 (TRPA1 797T): 3000 ± 1000 nM | EC50 (TRPA1 797R): 15000 ± 5000 nM

Nc1ncnc2c1cnn2-c1ccccc1 [PP3, 4-amino-7-phenylpyrazol[3,4-d]pyrimidine]
Effect of pre-treatment on responses to TRPM8 agonist (TRPM8 FK 1045,1046 AG [1]; 150 nM WS 12): did not affect responses; also recorded: did not inhibit responses | Recovery of responses to TRPA1 agonists after pre-treatment (SH-SY5Y TRPA1 R797T): did not facilitate recovery

COc1ccc(NC(=O)[C@@H]2CC(C)CC[C@H]2C(C)C)cc1 (stereo partly drawn) [WS 12, (1R,2S)-N-(4-methoxyphenyl)-5-methyl-2-(1-methylethyl)cyclohexanecarbo-xamide]
EC50 (TRPM8 FK 1045,1046 AG [1]; mean±S.E.M., n=3, read-out: EC50 for WS 12 (peak intracellular Ca2+ fluorescence)): 187 ± 37 nM | EC50 (human TRPM8; HEK293 TRPM8, mean±S.E.M., n=3, read-out: EC50 for WS 12 (peak intracellular Ca2+ fluorescence)): 128 ± 22 nM | EC50 (TRPM8 SV 762,763 EL): 178 ± 22 nM | Intracellular Ca2+ transients in empty-vector control cells [2]: did not exhibit intracellular Ca^2+ transients | EC50 (TRPM8 FK 1045,1046 AG [3]): 194 ± 50 nM

CCCN(CCC)S(=O)(=O)c1ccc(C(=O)O)cc1 [probenecid]
Effect of low probenecid concentration on Ca2+ assay results (human TRPM8; 0.13 mM probenecid, relative to data derived using sulfinpyrazone, TRPM8 and TRPA1 assays): did not affect | Effect of probenecid on TRPM8-induced intracellular Ca2+ response (human TRPM8; probenecid above 1 mM, up to 2.5 mM, 40 nM WS 12): inhibited; also recorded: suppressed the response to WS 12 | Effect of probenecid on TRPA1-induced intracellular Ca2+ response (TRPA1 797R; probenecid above 1 mM, up to 2.5 mM, 60 μM cinnamaldehyde): suppressed; also recorded: inhibited

CC1CCC(C(C)C)C(O)C1 (stereo not drawn) [menthol]
Intracellular Ca2+ transients in empty-vector control cells [2]: did not exhibit intracellular Ca^2+ transients
